In patent US9273095B2, “Antibiotic peptide and preparation method therefor and application therefor” (priority 2011, dated 2016):
Values after ≈ are worked out from the molar mass of the structure shown. Like-named read-outs stand apart in the source and are kept apart here. Marks after values point to notes of the source that are not given here. Non-standard residues stand in square brackets, D forms with d. Residues, ends and D or L forms follow the SMILES beside them.

How the values were obtained:
candida krusei = assay: microbe, parasite or virus in culture; type: cell-based; conditions: for MIC: Pichia kudriavzevii, read-out: Minimal inhibitory concentration
Description: • (1) Test strains: monilia albicans (candida albicans), candida glabrata, candida krusei, candida tropicalis, aspergillus fumigatus and flavous. (2) Quality control strains: candida krusei JLC30366 (ATCC6258). Antimicrobial peptides PL-13 (SEQ ID NO: 1) under test are supplied by Jiangsu ProteLight Pharmaceutical & Biotechnology Co., LTD. […] (1) The bacterial strains which preserved on PDA slant are respectively inoculated onto PDA plate and slant medium. Activation of bacterial strains is conducted at a humidity level of 60% and 25° C. (for aspergillus) or 37° C. (for candida). (2) 0.9% stroke-physiological saline solution comprising 0.5% Tween-80 is used to prepare bacterial suspension for experiment. Hemocytometer is utilized to adjust concentration of the bacterial suspension to 1-3×10^6 CFU/ml (0.5 McFarland units) to make stock solution in reserve at -20° C. During the sensitivity test, the RPMI-1640 liquid medium is diluted 1000 times to 1-3×10^3 CFU/ml. (3) The RPMI-1640 liquid is utilized as diluent to 10-fold dilute stock solution of peptides. […] The eleventh orifice is used as living control orifice, while the twelfth one as blank control. (4) The RPMI-1640 liquid is utilized as diluent to 10-fold dilute stock solution of FCZ and ICZ. […] Ditto for other operations.

candida albicans = assay: microbe, parasite or virus in culture; type: cell-based; conditions: for MIC: Candida albicans, read-out: Minimal inhibitory concentration
Procedure: (§1) • (1) Test strains: monilia albicans (candida albicans), candida glabrata, candida krusei, candida tropicalis, aspergillus fumigatus and flavous. Antimicrobial peptides PL-13 (SEQ ID NO: 1) under test are supplied by Jiangsu ProteLight Pharmaceutical & Biotechnology Co., LTD. […] Activation of bacterial strains is conducted at a humidity level of 60% and 25° C. (for aspergillus) or 37° C. (for candida). (2) 0.9% stroke-physiological saline solution comprising 0.5% Tween-80 is used to prepare bacterial suspension for experiment. Hemocytometer is utilized to adjust concentration of the bacterial suspension to 1-3×10^6 CFU/ml (0.5 McFarland units) to make stock solution in reserve at -20° C. During the sensitivity test, the RPMI-1640 liquid medium is diluted 1000 times to 1-3×10^3 CFU/ml. (3) The RPMI-1640 liquid is utilized as diluent to 10-fold dilute stock solution of peptides. […] The eleventh orifice is used as living control orifice, while the twelfth one as blank control. (4) The RPMI-1640 liquid is utilized as diluent to 10-fold dilute stock solution of FCZ and ICZ. […] Ditto for other operations.

aspergillus flavous = assay: microbe, parasite or virus in culture; type: cell-based; conditions: for MIC: JLC 30784 aspergillus flavous, read-out: Minimal inhibitory concentration
Procedure: as §1

candida tropicalis = assay: microbe, parasite or virus in culture; type: cell-based; conditions: for MIC: Candida tropicalis, read-out: Minimal inhibitory concentration
Procedure: as §1

aspergillus fumigatus = assay: microbe, parasite or virus in culture; type: cell-based; conditions: for MIC: JLC 30506 aspergillus fumigatus, read-out: Minimal inhibitory concentration
Procedure: as §1

candida glabrata = assay: microbe, parasite or virus in culture; type: cell-based; conditions: for MIC: Nakaseomyces glabratus, read-out: Minimal inhibitory concentration
Procedure: as §1

[1] = tested on: red cell suspension from healthy volunteers; assay: Hemolytic activity test; type: cell-based, human; conditions: for Hemolytic activity, absorbancy (OD value) at 570 nm: 4 hours at 37° C., OD higher than 0.1 is hemolytic, n = 3
Procedure: (1) Samples are serial diluted with sterile PBS to 1000, 500, 250, 125, 64, 32, 16, 8, 4 μg/ml in turn and spread in 96-well plates, 100 μl per orifice.
(2) We use distilled water as positive control, sterile PBS as negative control and blank orifice with 200 μl PBS solution added. Each concentration above is made in triplicate.
(3) We take 3 ml whole blood from healthy volunteers and washed it with sterile PBS three times to prepare fresh 2% concentration red cell suspension. Then we added 100 μl red cell suspension into each orifice and made them cultured for 4 hours at 37° C. in the incubator. After centrifuged by plate-swashing centrifuge, the supernatant liquid is collected and measured absorbancy (OD value) at a wavelength of 570 nm. Then we compared the hemolytic efficiency of these concentrations.
(4) According to the documents standard, OD value which is higher than 0.1 is hemolytic concentration.

[2] = tested on: Acinetobacter calcoaceticus; assay: microbe, parasite or virus in culture; type: cell-based
Procedure: (§2) The experimental strains are 37 standard strains preserved in lab and clinical isolated bacteria, including drug-resistant bacteria and quality-control bacteria selecting Staphylococcus aureus ATCC29213, Enterococcus faecalis ATCC29212, Escherichia coli ATCC25922, Pseudomonas aeruginosa ATCC27853 and klebsiella pneumoniae ATCC700603.
(§3) (1) Sensitivity test is conducted with two-fold agar dilution method and Denlay multipoint inoculator. Test bacteria are cultured with nutrient broth and brain heart infusion.
(§4) (2) The drug is double diluted into different concentration with MH broth after dissolved and then placed in the plate respectively.
(§5) (3) After dissolved, MH agar culture medium are injected into the plate with drug quantitatively and mixed to make the final concentration of drug are 0.03, 0.06, 0.125, . . . , 128 μg/ml respectively.
(§6) (4) After solidification of the culture medium in the plate, test bacteria (10^4CFU/point) are inoculated by multipoint inoculator and cultured for 18 hours at constant 35° C. Then observe the results.

[3] = tested on: Staphylococcus epidermidis; assay: microbe, parasite or virus in culture; type: cell-based
Procedure: as §2, §3, §4, §5, §6

Enterococcus faecium = assay: microbe, parasite or virus in culture; type: cell-based
Procedure: as §2, §3, §4, §6

Escherichia = assay: Therapeutic test of oral preparation on mice with systemic infection, survival time; type: in vivo, ICR mice; conditions: 80 mg/kg gavage three times a day for seven days, n = 10
Procedure: (§7) There are 30 male and 30 female ICR mice with the weight ranging from 18 g to 22 g. […] With trinitrophenal marking method, all the mice are raised with ordinary animal feeds in the ordinary animal houses and they can drink water freely. Alternating of light and dark is conducted every 12 hours.
(§8) 2. Infected Strains: Escherichia and Bacillus dysenteriae
(§9) (1) The preparation of bacterial suspension is the same as above.
(§10) (2) The Escherichia suspension cultured overnight is diluted to 1×10^7CFU/ml. The Bacillus dysenteriae suspension cultured overnight is diluted to 1×10^5CFU/ml. They are all applied in reserve.
(§11) (3) Except the blank control group, every other mouse is injected with 0.2 ml Escherichia suspension with the concentration of 1×10^7CFU/ml or 0.2 ml Bacillus dysenteriae suspension with the concentration of 1×10^5CFU/ml intraperitoneally to make model.
(§12) (4) Administration: The drugs are administered according to mice′ weight right after the model is ready. All the groups excepting the blank and the infected negative control groups are administered by gavaging with different dosage of drugs three times a day successively for seven days, and they are observed for fourteen days.
(§13) (5) Observe death of the animals and record their survival time.

Bacillus dysenteriae = assay: as above; type: in vivo, ICR mice; conditions: 80 mg/kg gavage three times a day for seven days, n = 10
Procedure: as §7, §8, §9, §10, §11, §12, §13

[4] = JLC 30883 aspergillus fumigatus

SMILES: OC(Cn1cncn1)(Cn1cncn1)c1ccc(F)cc1F [FCZ, Fluconazol, reference compound]
- MIC (candida krusei; JLC 30366 candida krusei): 16 µg/mL (≈ 52.2 µM)
- MIC (candida krusei; JLC 30383 candida krusei): 8 µg/mL (≈ 26.1 µM)
- MIC (candida albicans; JLC 33659 candida albicans): 0.25 µg/mL (≈ 0.816 µM)
- MIC (candida albicans; JLC 33660 candida albicans): 0.25 µg/mL (≈ 0.816 µM)
- MIC (aspergillus flavous): > 64 µg/mL
- Minimal inhibitory concentration (aspergillus flavous; JLC 40437 aspergillus flavous): >64 µg/mL
- MIC (candida tropicalis; JLC 31379 candida tropicalis): 0.5 µg/mL (≈ 1.63 µM)
- MIC (candida tropicalis; JLC 31384 candida tropicalis): 0.25 µg/mL (≈ 0.816 µM)
- MIC (aspergillus fumigatus): > 64 µg/mL
- Minimal inhibitory concentration (aspergillus fumigatus; [4]): >64 µg/mL
- MIC (candida glabrata; JLC 30367 candida glabrata): 2 µg/mL (≈ 6.53 µM)
- MIC (candida glabrata; JLC 31512 candida glabrata): 1 µg/mL (≈ 3.27 µM)

SMILES: CC(=O)N[C@H](Cc1ccccc1)C(=O)N[C@H](CCCCN)C(=O)N[C@H](CCCCN)C(=O)N[C@H](CC(C)C)C(=O)N[C@H](CCCCN)C(=O)N[C@H](CCCCN)C(=O)N[C@H](CCCCN)C(=O)N[C@H](Cc1ccccc1)C(=O)N[C@H](CO)C(=O)N[C@H](CCCCN)C(=O)N[C@H](CC(C)C)C(=O)N[C@H](Cc1c[nH]c2ccccc12)C(=O)N[C@H](CC(N)=O)C(=O)N[C@H](Cc1c[nH]c2ccccc12)C(=O)N[C@H](CCCCN)C(N)=O [PL-34] (Ac-[dF][dK][dK][dL][dK][dK][dK][dF][dS][dK][dL][dW][dN][dW][dK]-NH2)
- Hemolytic activity, absorbancy (OD value) at 570 nm ([1]; peptide 7.8125 μg/ml): 0.032
- Hemolytic activity, absorbancy (OD value) at 570 nm ([1]; peptide 15.625 μg/ml): 0.041
- Hemolytic activity, absorbancy (OD value) at 570 nm ([1]; peptide 31.25 μg/ml): 0.054
- Hemolytic activity, absorbancy (OD value) at 570 nm ([1]; peptide 62.5 μg/ml): 0.061
- Hemolytic activity, absorbancy (OD value) at 570 nm ([1]; peptide 125 μg/ml): 0.073
- Hemolytic activity, absorbancy (OD value) at 570 nm ([1]; peptide 250 μg/ml): 0.087
- Hemolytic activity, absorbancy (OD value) at 570 nm ([1]; peptide 500 μg/ml): 0.135
- Hemolytic activity, absorbancy (OD value) at 570 nm ([1]; peptide 1000 μg/ml): 0.317
- hemolytic toxicity (in words) ([1]; summary of Table 9): little hemolytic toxicity
- MIC [2]: 1.3 µM (≈ 2.67 µg/mL)
- MIC ([3]; 08-17 (MSSE) Meticillin susceptible staphylococcus epidermidis): 1.3 µM (≈ 2.67 µg/mL)
- MIC ([3]; (MRSE) Methicillin-resistant Staphylococcus epidermidis ATCC12228): 1.3 µM (≈ 2.67 µg/mL)
- Minimal inhibitory concentration (candida krusei): 8 µg/mL (≈ 3.9 µM)
- Minimal inhibitory concentration (candida albicans): 16 µg/mL (≈ 7.8 µM)
- Minimal inhibitory concentration (aspergillus flavous): >64 µg/mL
- Minimal inhibitory concentration (candida tropicalis): 4 µg/mL (≈ 1.95 µM)
- Minimal inhibitory concentration (aspergillus fumigatus): >64 µg/mL
- Minimal inhibitory concentration (candida glabrata): 32 µg/mL (≈ 15.6 µM)
- MIC (Enterococcus faecium): 1.3 µM (≈ 2.67 µg/mL)

SMILES: CCS(=O)(=O)CCn1c([N+](=O)[O-])cnc1C [Tinidazole]
- Mean survival Time (Escherichia; observed fourteen days): 7.5* day
- Mortality of mice in different days after infection (Escherichia; day 4): 1
- Mortality of mice in different days after infection (Escherichia; day 5): 2
- Mortality of mice in different days after infection (Escherichia; day 6): 2
- Mortality of mice in different days after infection (Escherichia; day 7): 1
- Mortality of mice in different days after infection (Escherichia; day 8): 1
- Mortality of mice in different days after infection (Escherichia; day 9): 2
- Mean survival Time (Bacillus dysenteriae; observed fourteen days): 7.0* day
- Mortality of mice in different days after infection (Bacillus dysenteriae; day 4): 2
- Mortality of mice in different days after infection (Bacillus dysenteriae; day 5): 1
- Mortality of mice in different days after infection (Bacillus dysenteriae; day 6): 2
- Mortality of mice in different days after infection (Bacillus dysenteriae; day 7): 2
- Mortality of mice in different days after infection (Bacillus dysenteriae; day 8): 1
- Mortality of mice in different days after infection (Bacillus dysenteriae; day 9): 1

SMILES: CCC(C)n1ncn(-c2ccc(N3CCN(c4ccc(OCC5COC(Cn6cncn6)(c6ccc(Cl)cc6Cl)O5)cc4)CC3)cc2)c1=O (stereo not drawn) [ICZ, Itraconazole, reference compound]
- MIC (candida krusei; JLC 30366 candida krusei): 0.25 µg/mL (≈ 0.354 µM)
- MIC (candida krusei; JLC 30383 candida krusei): 0.25 µg/mL (≈ 0.354 µM)
- MIC (candida albicans; JLC 33659 candida albicans): 0.03 µg/mL (≈ 0.0425 µM)
- MIC (candida albicans; JLC 33660 candida albicans): 0.0625 µg/mL (≈ 0.0886 µM)
- MIC (aspergillus flavous): 0.125 µg/mL (≈ 0.177 µM)
- Minimal inhibitory concentration (aspergillus flavous; JLC 40437 aspergillus flavous): 0.125 µg/mL (≈ 0.177 µM)
- MIC (candida tropicalis; JLC 31379 candida tropicalis): 0.03 µg/mL (≈ 0.0425 µM)
- MIC (candida tropicalis; JLC 31384 candida tropicalis): 0.03 µg/mL (≈ 0.0425 µM)
- MIC (aspergillus fumigatus): 0.125 µg/mL (≈ 0.177 µM)
- Minimal inhibitory concentration (aspergillus fumigatus; [4]): 0.125 µg/mL (≈ 0.177 µM)
- MIC (candida glabrata; JLC 30367 candida glabrata): 0.0625 µg/mL (≈ 0.0886 µM)
- MIC (candida glabrata; JLC 31512 candida glabrata): 0.03 µg/mL (≈ 0.0425 µM)
